Data taken from patent US6610681B1, “Neurotherapeutic clavulanate composition and method” (Revaax Pharmaceuticals, LLC, priority 1999, dated 2003).
Where two headings read alike, the source gives them in different places.

What was measured:
rats = test: Morris water maze, cue navigation; format: in vivo, rat
Protocol: On the day following the last day (Day 4) of spatial navigation, animals were tested for cue navigation. In these tests, the platform was raised above water level. One hr before testing animals were treated with CLAV or saline vehicle. The same animals treated with CLAV during spatial navigation were treated with CLAV for cue navigation. Animals were run through a series of two min trials with 45 min between trials. At each trial, the platform was moved to a different quadrant. The cue navigation study was identical to the spatial navigation except the platform was visible and the testing was done over five consecutive trials done on a single day. Animals were scored for latency to find the platform, percent time spent in each quadrant, path distance and swim speed for all testing periods.

[1] = in vivo, cited from earlier work

O=C(O)[C@H]1/C(=C/CO)O[C@@H]2CC(=O)N21 [CLAV, clavulanic acid]
percentage of time spent in each quadrant vs vehicle (rats; any quadrant on any trial): no significant difference between treatments
latency to find the platform (rats; visible platform, five trials): no main effect for treatments
distance traveled to find the platform (rats; vs vehicle): not significantly different
oral activity and stability ([1]; po): orally active and stable
CSF/plasma ratio [1]: 0.25
elimination half-life [1]: just under two hours
passage of the blood-brain barrier [1]: readily passes the blood-brain barrier
CSF/plasma ratio ([1]; listed as Clavulanic acid): around 0.25
